Assay results as given in publication PMC7673559 (2020).

What was measured:
[1] = system: T7 (DNA, G4) TGGGTTGGGTTGGGTTGGGT; experiment: UV-vis titration, SVD, direct fit; settings: 5 mM K+, 95 mM Li+; 10 mM lithium cacodylate pH 7.2; 4.3 μM NMM titrated with DNA
[2] = system: T7 (DNA, G4) TGGGTTGGGTTGGGTTGGGT; experiment: CD melting at 262 nm; settings: 5 mM K+, 95 mM Li+; 10 mM lithium cacodylate pH 7.2; ~5 μM DNA, 2 eq. NMM
[3] = system: T8 (DNA, G4) CGGGTTGGGTTGGGTTGGGG; experiment: CD melting at 262 nm; settings: 5 mM K+, 95 mM Li+; 10 mM lithium cacodylate pH 7.2; ~5 μM DNA, 2 eq. NMM
[4] = system: T7 (DNA, G4) TGGGTTGGGTTGGGTTGGGT; experiment: X-ray crystallography, 2.34 Å; settings: 20 mM K+; annealed in 10 mM lithium cacodylate pH 7.2; 5'-5' GQ dimer, NMM on 3' G-quartet
[5] = system: T1 (DNA, G4) GGGTTGGGTTGGGTTGGG; experiment: X-ray crystallography, 2.39 Å; settings: 20 mM K+; annealed in 10 mM lithium cacodylate pH 7.2; 5'-5' GQ dimer, NMM on 3' G-quartet
[6] = system: T1 (DNA, G4) GGGTTGGGTTGGGTTGGG; experiment: CD melting at 262 nm; settings: 5 mM K+, 95 mM Li+; 10 mM lithium cacodylate pH 7.2; ~5 μM DNA, 2 eq. NMM

Ka [1]: 18 ± 7 µM⁻¹
ΔTm [2]: 19.9 ± 0.4 °C
ΔTm [3]: 17.0 ± 0.5 °C
binding [4]: yes
binding [5]: yes
ΔTm [6]: 20. ± 1 °C
Compound: CCc1c(C)c2cc3nc(cc4nc(cc5c(CC)c(C)c(cc1[nH]2)n5C)C(C)=C4CCC(=O)O)C(CCC(=O)O)=C3C
